The results in this text go back to ChEMBL document CHEMBL5608162, “Design, synthesis and biological evaluation of 6-chloro-quinolin-2-one derivatives as novel FXIa inhibitors” (Bioorg Med Chem Lett, 2024).

Series [1] can be described thus: Half life in iv dosed rat. Type of series: ADME, organism-based. The note with it: in vivo.
The nature of series [2]: AUC in iv dosed rat. Conditions: in vivo. Type of series: ADME, organism-based.
A short description of series [3]: Volume of distribution at steady state in iv dosed rat. Type of series: ADME, organism-based. Conditions: in vivo, read-out: Vdss.
Series [4] is described as follows: Tmax in iv dosed rat. The format is ADME, organism-based. The note with it: in vivo.
Series [5] is described as follows: Cmax in iv dosed rat. The format is ADME, organism-based. The note with it: in vivo.
Series [6] in a line: Solubility of compound at pH 8. The format is physicochemical. Conditions: buffer.

As a reminder, the half-life is the time in which the quantity being followed falls by half. Read a low half-life as fast loss. What is called AUC is the area under the concentration-time curve, a measure of exposure. Read a low AUC as less exposure. What is called Tmax is the time at which the peak concentration occurs. As a reminder, the Cmax is the maximum level reached in the sampled fluid or tissue. In general, solubility refers to how much of the substance goes into solution per volume.

≈ marks a conversion by molar mass, not a printed value.

Description for Plasma: Anticoagulation activity in plasma (unknown origin) assessed as concentration required for twice the activated partial thromboplastin time

The compound `CC[C@@H](C(=O)Nc1ccc(C(N)=O)c(F)c1)n1cc(OC)c(-c2cc(Cl)ccc2-n2cc(C(F)(F)F)nn2)cc1=O` came in with a 2aPTT in the series with Plasma of 3.8 µM.
On the same count and under the same terms, the figure for `CN(Cc1cc(=O)[nH]c2ccc(Cl)cc12)C(=O)[C@H](Cc1ccc(NC(=O)C2CCCC2)cc1)NC(=O)c1ccc(C(=O)O)s1` is 11.2 µM.
In turn, `CC1CC1C(=O)Nc1ccc(C[C@H](NC(=O)c2ccc(C(=O)O)s2)C(=O)N(C)Cc2cc(=O)[nH]c3ccc(Cl)cc23)cc1` (stereo not given in full) showed a half-life in series [1] of 48.6 min. The compound further returned an AUC in series [2] of 313 ng·h/mL. Also, the Vd in series [3] turned out to be 40 L/kg. Moreover, the Tmax in series [4] was 1.2 min. The Cmax in series [5] was 2120 ng/mL. In addition, in series [6], the solubility result is listed as “Soluble”. This compound also displayed a 2aPTT with Plasma of 6.8 µM.
For the compound `CN(Cc1cc(=O)[nH]c2ccc(Cl)cc12)C(=O)[C@H](Cc1ccc(NC(=O)C2CCCCC2)cc1)NC(=O)c1ccc(C(=O)O)s1`, the 2aPTT with Plasma is 14 µM.
On the same count and under the same terms, under `CN(Cc1cc(=O)[nH]c2ccc(Cl)cc12)C(=O)[C@H](Cc1ccc(NC(=O)C2CC2)cc1)NC(=O)c1ccc(C(=O)O)s1` stands 6.9 µM.
For the compound `COC(=O)Nc1ccc(C(=O)N[C@@H](Cc2ccccc2)C(=O)N(C)Cc2cc(=O)[nH]c3ccc(Cl)cc23)cc1`, the solubility in series [6] (read-out: solubility) worked out at 17.3 µg/mL (≈ 31.6 µM). In addition, the 2aPTT in the series on Plasma was 16.7 µM.
Turning to `CN(Cc1cc(=O)[nH]c2ccc(Cl)cc12)C(=O)[C@H](Cc1ccc(NC(=O)C2CC2(C)C)cc1)NC(=O)c1ccc(C(=O)O)s1` (stereo not given in full), in the series on Plasma, the 2aPTT turned out to be 9.8 µM.
The same measure, in the same setting: under `CN(Cc1cc(=O)[nH]c2ccc(Cl)cc12)C(=O)[C@H](Cc1ccc(NC(=O)C2CCC2)cc1)NC(=O)c1ccc(C(=O)O)s1` stands 13.3 µM.
